Laboratory results as given in ChEMBL document CHEMBL1681719, “Synthesis and evaluation of 1,5-diaryl-substituted tetrazoles as novel selective cyclooxygenase-2 (COX-2) inhibitors” (Bioorg Med Chem Lett, 2011).
pIC50: −log10 of the molar value.

How the values were obtained:
[1] = Selectivity index ratio of IC50 for ovine COX-1 to IC50 for human recombinant COX-2
[2] = target: T1, Prostaglandin G/H synthase 2 (Homo sapiens, UniProt P35354); assay: Inhibition of human recombinant COX-2 by fluorescence assay
T1 sequence (P35354 whole entry): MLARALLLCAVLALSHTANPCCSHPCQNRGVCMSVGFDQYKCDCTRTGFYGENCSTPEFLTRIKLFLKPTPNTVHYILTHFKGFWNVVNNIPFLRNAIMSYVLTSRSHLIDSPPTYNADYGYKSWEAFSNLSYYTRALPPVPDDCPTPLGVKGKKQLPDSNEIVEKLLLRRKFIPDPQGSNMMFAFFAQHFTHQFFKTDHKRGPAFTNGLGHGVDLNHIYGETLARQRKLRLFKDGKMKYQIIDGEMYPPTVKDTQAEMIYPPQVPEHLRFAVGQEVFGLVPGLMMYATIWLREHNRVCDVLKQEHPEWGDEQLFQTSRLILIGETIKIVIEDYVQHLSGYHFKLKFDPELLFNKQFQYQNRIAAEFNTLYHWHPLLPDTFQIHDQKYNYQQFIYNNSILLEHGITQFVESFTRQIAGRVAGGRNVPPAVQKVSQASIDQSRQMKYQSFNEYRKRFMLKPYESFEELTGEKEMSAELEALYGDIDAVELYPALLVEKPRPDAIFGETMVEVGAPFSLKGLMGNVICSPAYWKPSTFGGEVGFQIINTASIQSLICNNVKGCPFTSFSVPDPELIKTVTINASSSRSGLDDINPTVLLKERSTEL

[3] = target: T2, Prostaglandin G/H synthase 1 (Ovis aries, UniProt P05979); assay: Inhibition of ovine COX-1 by fluorescence assay
T2 sequence (P05979 whole entry): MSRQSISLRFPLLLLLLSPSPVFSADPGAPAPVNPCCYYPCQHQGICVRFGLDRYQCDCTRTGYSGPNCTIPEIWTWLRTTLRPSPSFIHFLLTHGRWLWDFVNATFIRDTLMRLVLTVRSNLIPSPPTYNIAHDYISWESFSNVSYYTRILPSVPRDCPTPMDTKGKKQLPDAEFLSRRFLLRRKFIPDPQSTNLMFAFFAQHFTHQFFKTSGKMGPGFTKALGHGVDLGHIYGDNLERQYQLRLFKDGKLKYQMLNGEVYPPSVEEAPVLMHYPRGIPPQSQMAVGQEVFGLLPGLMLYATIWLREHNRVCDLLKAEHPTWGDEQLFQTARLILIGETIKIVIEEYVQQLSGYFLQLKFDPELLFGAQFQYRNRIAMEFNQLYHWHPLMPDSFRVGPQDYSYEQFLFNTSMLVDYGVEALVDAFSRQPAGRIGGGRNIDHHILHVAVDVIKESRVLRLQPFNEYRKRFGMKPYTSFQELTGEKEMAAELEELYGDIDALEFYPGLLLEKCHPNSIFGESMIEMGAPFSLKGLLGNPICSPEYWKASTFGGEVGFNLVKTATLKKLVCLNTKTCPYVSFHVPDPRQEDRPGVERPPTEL

SMILES | Ratio IC50 [1] | pIC50 [2] | pIC50 [3]
CS(=O)(=O)c1ccc(-c2nnnn2-c2ccccc2)cc1 | 18.5 | 3.70 | 2.43
COc1ccc(-n2nnnc2-c2ccc(S(C)(=O)=O)cc2)cc1 | 210 | 5.70 | 3.38

More lines, now with the values ahead:

Ratio IC50 [1] | pIC50 [2] | pIC50 [3] | SMILES
180 | 4.35 | 2.09 | Cc1ccc(-n2nnnc2-c2ccc(S(C)(=O)=O)cc2)cc1
237 | 5.57 | 3.19 | CS(=O)(=O)c1ccc(-c2nnnn2-c2ccc(F)cc2)cc1
4.5 | 3.96 | 3.30 | CS(=O)(=O)c1ccc(-c2nnnn2-c2ccc(Cl)cc2)cc1
